Measurements as given in US12729405B2, “Method and kit for determining benefit of chemotherapy” (St. Jude Children's Research Hospital, Inc., priority 2019, dated 2026).
Where two headings read alike, the source gives them in different places.

Columns and labels:
primary human ALL cells = assay: cells; details: for response of dasatinib-resistant T-ALL: dasatinib-resistant T-ALL cases, as well as cell lines; for response of dasatinib-sensitive primary T-ALL cases to other ABL inhibitors: subset of primary T-ALL samples (N=18)
Protocol: Ex vivo Leukemia Drug Sensitivity Assay. Drug response of primary human ALL cells was evaluated using a co-culture system and flow cytometry assays. hTERT-immortalized mesenchymal stem cells ([…] Wang, et al. (2019) Nat. Commun. 10:3718) were first seeded in a 96-well plate format at a density of 10,000 cells per well in 100 μL of complete medium (RPMI-1640, L-glutamine, 10% fetal bovine serum and 1 μM Hydrocortisone). After 24 hours, leukemia cells were added at 160,000 cells per well to the stromal cell layer in 80 μL AIM-V medium along with 20 μL of drug solution prepared in the same medium. […] After 96 hours incubation at 37° C. with 5% CO2, cells were harvested and stained with CD19 or CD7 to identify leukemia blasts (for B-ALL and T-ALL, respectively). The total number of live leukemia cells were evaluated by using flow cytometry after Annexin V and DAPI staining. Drug-induced death was estimated by comparing to leukemia cells treated with the vehicle alone. The drug concentration that killed 50% of the leukemia cells (LC50 value) was determined using a dose-response model and as a measurement of drug sensitivity. Quality control was performed to remove cases with low viability (less than 1000 viable blast cells in each well in the absence of drugs on day 4).

[1] = dasatinib dosing for CML, oral twice a day; cited from earlier work

Compound: COc1ccc(N(C(=O)Oc2c(C)cccc2C)c2ccnc(Nc3ccc(N4CCN(C)CC4)cc3)n2)c(OC)c1 [WH 4-023]
- cytotoxicity in dasatinib-sensitive cases (primary human ALL cells): potent cytotoxicity
- response of dasatinib-resistant T-ALL (primary human ALL cells): largely did not respond

Compound: Cc1nc(Nc2ncc(C(=O)Nc3c(C)cccc3Cl)s2)cc(N2CCN(CCO)CC2)n1 [dasatinib]
- T-ALL cases classified as dasatinib-sensitive (primary human ALL cells; 45 T-ALL cases, cutoff LC50 80 nM, 15 cases): 33.3%
- CC50 (primary human ALL cells; Homo sapiens, 96 h, read-out: LC50 (mean), cases with high LC50, ALL samples, high-LC50 mode of bimodal distribution, 96 hours): 12000 nM
- CC50 (primary human ALL cells; Homo sapiens, 96 h, read-out: LC50 (mean), cases with low LC50, ALL samples (352 children and adults), low-LC50 mode of bimodal distribution, 96 hours): 5.92 nM
- CC50 (primary human ALL cells; Homo sapiens, read-out: LC50 (range), cases with high LC50, ALL samples, high-LC50 mode, 20000 nM is the assigned ceiling): 102 to 20000 nM
- CC50 (primary human ALL cells; Homo sapiens, read-out: LC50, one T-ALL case with TCF7-SP1 fusion, 0.05 nM is the assigned floor value): ≤ 0.05 nM
- CC50 (primary human ALL cells; Homo sapiens, read-out: LC50, two additional T-ALL cases with the same SPI1 fusion gene, ex vivo): 0.05 nM
- dasatinib-sensitive T-ALL in adults (primary human ALL cells; adults with T-ALL, cutoff LC50 80 nM): 16.7%
- dasatinib-sensitive T-ALL in children (primary human ALL cells; children with T-ALL, cutoff LC50 80 nM): 44.4%
- CC50 (primary human ALL cells; human, 96 h): 0.05 to 79.4 nM
- Cmax [1]: 60 to 120 nM

Compound: Cc1ccc(NC(=O)c2ccc(CN3CCN(C)CC3)cc2)cc1Nc1nccc(-c2cccnc2)n1 [imatinib]
- response of dasatinib-sensitive primary T-ALL cases to other ABL inhibitors (primary human ALL cells): universally resistant

Compound: Cc1cn(-c2cc(NC(=O)c3ccc(C)c(Nc4nccc(-c5cccnc5)n4)c3)cc(C(F)(F)F)c2)cn1 [nilotinib]
- response of dasatinib-sensitive primary T-ALL cases to other ABL inhibitors (primary human ALL cells): universally resistant

Compound: COC(=O)c1ccc2c(c1)NC(=O)/C2=C(\Nc1ccc(N(C)C(=O)CN2CCN(C)CC2)cc1)c1ccccc1 [nintedanib]
- cytotoxicity in dasatinib-sensitive cases (primary human ALL cells): potent cytotoxicity
- response of dasatinib-resistant T-ALL (primary human ALL cells): largely did not respond
